Read-outs that look alike come from different tables or passages of the source.
Biological target: T1, CA-IX (Homo sapiens, UniProt Q16790)
T1 construct: His tag (C); purchased R&D Systems Inc. 2188-CA; host or cells: mouse myeloma cell line NS0
Assay: CA-IX combinatorial library screening, competitive fluorescence-based assay with dansylamide (DNSA)
Format: binding
Conditions: sample concentrations 100 nM and 1000 nM, DNSA 200 μM, screening at 1 μM; for inhibition at 1 µM: 1 h
Protocol: General. CA-IX human recombinant enzyme was expressed with a C-terminal His tag in a mouse myeloma cell line, NS0 (R&D Systems Inc., catalog number 2188-CA). The human red blood cells were obtained from Research Blood Components, LLC. All absorbance measurements were performed on a SPECTRA MAX M2 plate reader at 25° C. The LC/MS analyses were performed on an Agilent 1100 series LC/MSD (SL) using a 30×2.1 mm Zorbax C8 column with a Phenomenex C18 pre-column. Compound detection was accomplished by electrospray mass spectroscopy in positive selected ion mode (LC/MS-SIM). The elution solvents were acetonitrile and water, contained 0.05% TFA. Nuclear magnetic resonance (NMR) spectra were obtained on a Bruker AMX 300 MHz spectrometer or a Varian 400. 19F NMR spectra were recorded on a Bruker AMX 282.35 MHz or a Varian 400 spectrometer. The mass spectra were recorded on an Agilent 1100 series LC/MSD with electrospray mass spectroscopic detection. Flash column chromatography was performed on Merck silica gel (40-63 μm) using the solvent system indicated. The radiochemical and chemical purities were analyzed by RP-HPLC.
General Combinatorial Library Screening Protocol for CA-IX
The CA-IX screening assay was employed for testing libraries derived from the various “anchor” molecules, using ethoxzolamide as a positive control. The assay was performed at a substrate (dansylamide, DNSA) concentration of 200 μM, and sample concentrations of 100 nM and 1000 nM, respectively. A modified competitive fluorescence-based assay (A. Jain, S. G. Huang, G. M. Whitesides, J. Am. Chem. Soc. 1994, 116, 5057) was used to measure CA-IX activity. The enzymatic assay was carried out in a 96-well plate. To the wells, deionized water, 40 μL of phosphate buffer (250 mM, pH 7.4), 2.4 μL of CA-IX (17 μM), and 2 μL or 20 μL of inhibitor (concentration of 100 nM or 1000 nM) were added to achieve a final volume of 180 μL. Reactions were initiated by adding 20 μL DNSA (200 μM) to each well and the plate was incubated at 25° C. for 1 hour. The fluorescence intensities from each well of the plate were then read at 460 nm using a plate reader with an excitation wavelength of 290 nm.

[1] = Table 2, Libraries 4-7, read-out: In Vitro Binding Assay (Library (Screening))
[2] = Table 1, Libraries 1-3, read-out: In Vitro Binding Assay (Library Screening)

| SMILES | inhibition at 1 µM [1] [%] | inhibition at 1 µM [2] [%] | also measured |
| --- | --- | --- | --- |
| NS(=O)(=O)c1ccc(-c2cn([C@@H](Cc3ccccc3)C(=O)NCC3CC3)nn2)cc1 [DHK-2-13] | < 40 |  |  |
| CN(Cc1ccccc1)C(=O)[C@H](Cc1ccccc1)n1cc(-c2ccc(S(N)(=O)=O)cc2)nn1 [DHK-2-2] | < 40 |  |  |
| CCOC(=O)C1CCN(C(=O)[C@H](Cc2ccccc2)n2cc(COc3ccc4nc(S(N)(=O)=O)sc4c3)nn2)CC1 [DHK-2-68] |  |  | In Vitro Binding Assay (Library Screening) (Table 2, Libraries 4-7): √ |
| CN(C)Cc1ccc(CSCCNC(=O)[C@H](Cc2ccccc2)n2cc(COc3ccc4nc(S(N)(=O)=O)sc4c3)nn2)o1 [DHK-2-54] | < 40 |  |  |
| COC(=O)C(NC(=O)[C@H](Cc1ccccc1)n1cc(COc2ccc3nc(S(N)(=O)=O)sc3c2)nn1)C(C)C (stereo partly drawn) [DHK-2-60] | < 40 |  |  |
| NS(=O)(=O)c1nc2ccc(OCc3cn([C@@H](Cc4ccccc4)C(=O)N4CCN(c5ccccn5)CC4)nn3)cc2s1 [DHK-2-58] | < 40 |  |  |
| Cc1onc(-c2ccccc2)c1CNC(=O)[C@H](Cc1ccccc1)n1cc(-c2ccc(S(N)(=O)=O)cc2)nn1 [DHK-2-15] | < 40 |  |  |
| CCOC(=O)[C@@H](Cc1ccccc1)NC(=O)[C@H](Cc1ccccc1)n1cc(-c2ccc(S(N)(=O)=O)cc2)nn1 [DHK-2-8] | < 40 |  |  |
| NS(=O)(=O)c1ccc(-c2cn([C@@H](Cc3ccccc3)C(=O)NC3CCCCC3)nn2)cc1 [DHK-2-12] | < 40 |  |  |
| CC(C)[C@@H](C(=O)N1CCN(c2ccccn2)CC1)n1cc(COc2ccc3nc(S(N)(=O)=O)sc3c2)nn1 [DHK-2-31] | < 40 |  |  |
| NS(=O)(=O)c1nc2ccc(OCc3cn([C@@H](Cc4ccccc4)C(=O)NCCN4CCN(Cc5ccccc5)CC4)nn3)cc2s1 [DHK-2-74] | < 40 |  |  |
| NS(=O)(=O)c1ccc(-c2cn([C@@H](Cc3ccccc3)C(=O)NCC3COc4ccccc4O3)nn2)cc1 (stereo partly drawn) [DHK-2-20] | < 40 |  |  |
| NS(=O)(=O)c1ccc(-c2cn([C@@H](Cc3ccccc3)C(=O)N3CCC[C@@H]3CO)nn2)cc1 [DHK-2-6] | < 40 |  |  |
| Cc1onc(-c2ccccc2)c1CNC(=O)[C@H](C(C)C)n1cc(COc2ccc3nc(S(N)(=O)=O)sc3c2)nn1 [DHK-2-39] | < 40 |  |  |
| NS(=O)(=O)c1ccc(-c2cn([C@@H](Cc3ccccc3)C(=O)N3CCC(CCO)CC3)nn2)cc1 [DHK-2-18] | < 40 |  |  |
| CC(C)[C@@H](C(=O)NCc1ccc(-c2ccccn2)s1)n1cc(COc2ccc3nc(S(N)(=O)=O)sc3c2)nn1 [DHK-2-29] | < 40 |  |  |
| NS(=O)(=O)c1ccc(-c2cn([C@@H](Cc3ccccc3)C(=O)NC3c4ccccc4C[C@@H]3O)nn2)cc1 (stereo partly drawn) [DHK-2-19] | < 40 |  |  |

Second part, led by results:

| inhibition at 1 µM [1] [%] | inhibition at 1 µM [2] [%] | SMILES | also measured |
| --- | --- | --- | --- |
|  | < 40 | Cc1ccc(CNC(=O)[C@@H](C(C)C)n2cc(-c3ccc(S(N)(=O)=O)cc3)nn2)cc1F [DHK20] |  |
| < 40 |  | CC(C)[C@@H](C(=O)NCCN1CCN(Cc2ccccc2)CC1)n1cc(-c2ccc(S(N)(=O)=O)cc2)nn1 [DHK191] |  |
|  | < 40 | CCCCCCCCCCC(C(=O)O)n1cc(CNC(=O)c2ccc(S(N)(=O)=O)cc2)nn1 (stereo not drawn) [DHK110] |  |
| < 40 |  | CC(C)[C@@H](C(=O)NC1c2ccccc2C[C@@H]1O)n1cc(-c2ccc(S(N)(=O)=O)cc2)nn1 (stereo partly drawn) [DHK186] |  |
|  | < 40 | NS(=O)(=O)c1ccc(C(=O)NCc2cn(Cn3nnc4ccccc43)nn2)cc1 [DHK55] |  |
|  | < 40 | NS(=O)(=O)c1ccc(C(=O)NCc2cn(Cc3cccc(Br)c3)nn2)cc1 [DHK47] |  |
|  | < 40 | CCCCCC[C@@H](O)[C@@H](O)c1ccc(Cn2cc(COc3ccc4nc(S(N)(=O)=O)sc4c3)nn2)cc1 [DHK135] |  |
|  | < 40 | NS(=O)(=O)c1ccc(-c2cn(CCOc3ccc4ccc(=O)oc4c3)nn2)cc1 [DHK63] |  |
|  | < 40 | CC(C)C[C@@H](C(=O)NCc1ccccc1)n1cc(-c2ccc(S(N)(=O)=O)cc2)nn1 [DHK12] |  |
|  | < 40 | NS(=O)(=O)c1ccc(-c2cn(CC(=O)Nc3nccs3)nn2)cc1 [DHK101] |  |
|  | < 40 | Cc1ccc(CNC(=O)C(C(C)C)n2cc(CNC(=O)c3ccc(S(N)(=O)=O)cc3)nn2)cc1F (stereo not drawn) [DHK49] |  |
|  | < 40 | NS(=O)(=O)c1ccc(C(=O)NCc2cn(C3CCN(C(=O)/C=C/c4ccccc4)CC3)nn2)cc1 [DHK97] |  |
| < 40 |  | CC(C)[C@@H](C(=O)N(C)Cc1ccccc1)n1cc(-c2ccc(S(N)(=O)=O)cc2)nn1 [DHK166] |  |
|  | < 40 | Cc1ccnc(NC(=O)[C@H](Cc2ccccc2)n2cc(COc3ccc4nc(S(N)(=O)=O)sc4c3)nn2)c1 [DHK115] |  |
|  | < 40 | Cc1ccc(C)c(CNC(=O)[C@H](Cc2ccccc2)n2cc(COc3ccc4nc(S(N)(=O)=O)sc4c3)nn2)c1 [DHK120] |  |
|  | < 40 | NS(=O)(=O)c1ccc(C(=O)NCc2cn(C(c3ccccc3)[C@@H](OC/C=C/c3ccccc3)c3ccccc3)nn2)cc1 (stereo partly drawn) [DHK90] |  |
|  | < 40 | CCCOC(=O)c1ccc(NC(=O)Cn2cc(COc3ccc4nc(S(N)(=O)=O)sc4c3)nn2)cc1 [DHK130] |  |

| inhibition at 1 µM [1] [%] | inhibition at 1 µM [2] [%] | SMILES | also measured |
| --- | --- | --- | --- |
| < 40 |  | COC(=O)[C@H](C)NC(=O)[C@H](C(C)C)n1cc(-c2ccc(S(N)(=O)=O)cc2)nn1 [DHK177] |  |
|  | < 40 | CC(C)(C)c1cc(C(=O)Cn2cc(CNC(=O)c3ccc(S(N)(=O)=O)cc3)nn2)cc(C(C)(C)C)c1O [DHK59] |  |
|  | < 40 | CC(C)C[C@@H](C(=O)NCc1ccccc1)n1cc(COc2ccc3nc(S(N)(=O)=O)sc3c2)nn1 [DIIK118] |  |
|  | < 40 | NS(=O)(=O)c1nc2ccc(OCc3cn(-c4cccc(C(=O)NN5CCOCC5)c4)nn3)cc2s1 [DHK116] |  |
| < 40 |  | CCOC(=O)[C@@H](Cc1ccccc1)NC(=O)[C@H](C(C)C)n1cc(-c2ccc(S(N)(=O)=O)cc2)nn1 [DHK175] |  |
|  | < 40 | CCCCCC[C@H](O)[C@@H](O)c1ccc(Cn2cc(-c3ccc(S(N)(=O)=O)cc3)nn2)cc1 [DHK70] |  |
|  | < 40 | NS(=O)(=O)c1ccc(C(=O)NCc2cn(-c3ccnc4cc(Cl)ccc34)nn2)cc1 [DHK86] |  |
| < 40 |  | CCOC(=O)[C@@H](NC(=O)[C@H](C(C)C)n1cc(-c2ccc(S(N)(=O)=O)cc2)nn1)C(C)C [DHK176] |  |
| < 40 |  | CC(C)[C@@H](C(=O)N1CCN(c2ccccn2)CC1)n1cc(-c2ccc(S(N)(=O)=O)cc2)nn1 [DHK174] |  |
|  | < 40 | NS(=O)(=O)c1nc2ccc(OCc3cn(C4CCN(C(=O)/C=C/c5ccccc5)CC4)nn3)cc2s1 [DHK144] |  |
| < 40 |  | CC(C)[C@@H](C(=O)NCc1ccc(C(F)(F)F)cc1)n1cc(-c2ccc(S(N)(=O)=O)cc2)nn1 [DHK168] |  |
|  | < 40 | NS(=O)(=O)c1nc2ccc(OCc3cn(-c4ccnc5cc(Cl)ccc45)nn3)cc2s1 [DHK136] |  |
|  | < 40 | NS(=O)(=O)c1nc2ccc(OCc3cn(CCn4c(=O)[nH]c5ccccc5c4=O)nn3)cc2s1 [DHK140] |  |
|  | < 40 | COC(=O)C(Cc1ccc(C(=O)O)cc1)n1cc(-c2ccc(S(N)(=O)=O)cc2)nn1 (stereo not drawn) [DHK67] |  |
| < 40 |  | CCOC(=O)CCN(Cc1ccco1)C(=O)[C@H](C(C)C)n1cc(-c2ccc(S(N)(=O)=O)cc2)nn1 [DHK183] |  |
|  | < 40 | NS(=O)(=O)c1nc2ccc(OCc3cn(C(c4ccccc4)[C@@H](OC/C=C/c4ccccc4)c4ccccc4)nn3)cc2s1 (stereo partly drawn) [DHK138] |  |
| < 40 |  | Cc1onc(-c2ccccc2)c1CNC(=O)[C@H](C(C)C)n1cc(-c2ccc(S(N)(=O)=O)cc2)nn1 [DHK182] |  |

Source: US7829063B2, “Development of molecular imaging probes for carbonic anhydrase-IX using click chemistry” (Siemens Medical Solutions USA, Inc., priority 2007, dated 2010)
